The values below are quoted from earlier work in US20080160503A1, “RAPID ANALYSIS OF ORAL BIOAVAILABILITY” (priority 2006, published 2008).

For this data set the following is noted: background statement; for first-pass metabolism: oral administration, gut wall and liver; for bioavailability through the oral route: no data shown.

Structures are written as SMILES.

As to `CC(C)NCC(O)c1ccc(O)c(O)c1` (centres unmarked) [isoproterenol], the first-pass metabolism result is listed as “extensive” and the “bioavailability through the oral route” value is “virtually zero”.
Regarding `NC[C@H](O)c1ccc(O)c(O)c1` [norepinephrine], the “bioavailability through the oral route” value was “virtually zero”.
For the compound `C[C@]12CC[C@H]3[C@@H](CCC4=CC(=O)CC[C@@]43C)[C@@H]1CC[C@@H]2O` [testosterone], the first-pass metabolism result was “extensive” and the “bioavailability through the oral route” value is listed as “virtually zero”.
